Assay results: EP0427843B1, “SPECIFIC INHIBITOR FOR RETROVIRUS REVERSE TRANSCRIPTASE, AND ITS APPLICATION AS A MEDICAMENT” (BLOUGH, Herbert A., Dr., priority 1989, dated 1990)
Entries after “also recorded” stand apart in the source; their conditions may differ. Where two headings read alike, the source gives them in different places. Each block holds one compound with its values, some of them ahead of it.

Columns and labels:
AMV-RT = assay: AMV reverse transcriptase inhibition, primer extension, PAGE and autoradiography; assay type: biochemical, virus de myéloblastose aviaire; settings: for effet sur la R.T. (AMV): qualitative
Text: (§1) Transcriptase inverse: l'enzyme active du point de vue enzymatique, purifiée, clonée, a été préparée dans Escherichia coli à l'aide de la technique précédemment décrite par Hizi A., McGill C., Hugues G., Proc. Natl. Acad. Sci. USA 85, 1218-1222 (1988). Le dosage de la R.T. a été effectuée à l'aide de matrice d'ADN (au hasard et avec des séquences HIV) et de primer(s) marqué(s) (brins d'initiation) par radioactivité. Après formation de complexes entre la matrice d'ADN et les primers, la R.T. a été ajoutée et incubée. Diverses concentrations d'inhibiteur ont été ajoutées soit avant soie après que le, ou les complexes, aient été formés. L'initiation et l'élongation de la chaîne ont été étudiées à l'aide de P.A.G.E. à 20% [Shane D.L., Goodman M.F., Echols N.A., Nucleic Acids Res. 16, 1218-1222 (1988] et les produits analysés par autoradiographie. Différentes matrices et conditions ont été utilisées pour distinguer ces fonctions. En outre, de la R.T. disponible dans le commerce provenant du virus de myéloblastose aviaire a été également utilisée.
(§2) Le dosage de l'effet des inhibiteurs sur la R.T. était le suivant: • A) On prépare un mélange réactionnel de […] contenant: • . ADN matrice 10⁻⁸M • . ADN primer 4 x 10⁻¹⁰M/ADN primer 5' [³²P] • . 2 »l de tampon HIV-RT ([10x] (500 mM Tris-HCl • . pH 7,8; 60 mM MgCl₂; 10 mM dithiothréitol; 500 mM KCl); et • . de l'eau bidistillée pendant […] à 37°C. • B) On ajoute 1 unité de HIV-RT (une unité correspond à l'activité enzymatique qui incorpore 1 nmol de [³H] TMP en produit insoluble dans l'acide en 10 mn à 37°C avec du poly(A)-(dT)₁₅ comme substrat) pendant 10 min à 37°C. • C) On ajoute un mélange de désoxy nucléotide triphosphates (dXTPs) contenant 0,25 mM de chaque dXTP pour un volume de mélange final de 20 »l pendant 5 minutes à 37°C. • D) Pour tester le ou les inhibiteurs, diverses concentrations de ces produits (sous un volume constant) sont ajoutées (selon Etape B) au mélange des dXTPs. Le mélange réactionnel est incubé à 37°C pendant […]. • E) On fait cesser la réaction par de l'EDTA 10 nM dans le formamide à 90%. • F) Des échantillons sont chauffés à 90°C pendant 5 mn et les produits séparés par électrophorèse sur gels de Polyacrylamide à 20% en présence d'urée. • G) Les variations dans l'élongation, la synthèse, etc... sont détectées par autoradiographie et testées par comparaison avec des "témoins" sans inhibiteur.

HIV-RT = target: T1, HIV-RT (Human immunodeficiency virus type 1 group M subtype B, UniProt P03366); assay type: biochemical; settings: for effet inhibiteur sur la HIV1-RT: qualitative, autoradiogram, aurothiopropanol 0 à 2 mM (Figure 7), AZT 0,1 »M à 1 mM (Figure 8)
T1 construct: Transcriptase inverse: l'enzyme active du point de vue enzymatique, purifiée, clonée, a été préparée dans Escherichia coli; made in house; host or cells: Escherichia coli
Text: as §1, §2
Le mélange est incubé pendant 5 mn à 37°C. • dans le cas (c) l'enzyme, l'hybride primer-matrice et 2 des 4 désoxy-ribonucléotides sont ajoutés et incubés pendant 5 mn à 37°C.

[1] = target: T2, DNA polymérase alpha de foie de rat (Rattus norvegicus, UniProt O89042); assay: Effect on rat DNA polymerase alpha; assay type: biochemical; settings: partially purified enzyme; sensitive only above the value
T2 construct: la DNA polymérase alpha de foie de rat partiellement purifiée; tissue Dr A M de Recondo, Villejuif (gift); host or cells: rat liver
T2 sequence (O89042 1-1451): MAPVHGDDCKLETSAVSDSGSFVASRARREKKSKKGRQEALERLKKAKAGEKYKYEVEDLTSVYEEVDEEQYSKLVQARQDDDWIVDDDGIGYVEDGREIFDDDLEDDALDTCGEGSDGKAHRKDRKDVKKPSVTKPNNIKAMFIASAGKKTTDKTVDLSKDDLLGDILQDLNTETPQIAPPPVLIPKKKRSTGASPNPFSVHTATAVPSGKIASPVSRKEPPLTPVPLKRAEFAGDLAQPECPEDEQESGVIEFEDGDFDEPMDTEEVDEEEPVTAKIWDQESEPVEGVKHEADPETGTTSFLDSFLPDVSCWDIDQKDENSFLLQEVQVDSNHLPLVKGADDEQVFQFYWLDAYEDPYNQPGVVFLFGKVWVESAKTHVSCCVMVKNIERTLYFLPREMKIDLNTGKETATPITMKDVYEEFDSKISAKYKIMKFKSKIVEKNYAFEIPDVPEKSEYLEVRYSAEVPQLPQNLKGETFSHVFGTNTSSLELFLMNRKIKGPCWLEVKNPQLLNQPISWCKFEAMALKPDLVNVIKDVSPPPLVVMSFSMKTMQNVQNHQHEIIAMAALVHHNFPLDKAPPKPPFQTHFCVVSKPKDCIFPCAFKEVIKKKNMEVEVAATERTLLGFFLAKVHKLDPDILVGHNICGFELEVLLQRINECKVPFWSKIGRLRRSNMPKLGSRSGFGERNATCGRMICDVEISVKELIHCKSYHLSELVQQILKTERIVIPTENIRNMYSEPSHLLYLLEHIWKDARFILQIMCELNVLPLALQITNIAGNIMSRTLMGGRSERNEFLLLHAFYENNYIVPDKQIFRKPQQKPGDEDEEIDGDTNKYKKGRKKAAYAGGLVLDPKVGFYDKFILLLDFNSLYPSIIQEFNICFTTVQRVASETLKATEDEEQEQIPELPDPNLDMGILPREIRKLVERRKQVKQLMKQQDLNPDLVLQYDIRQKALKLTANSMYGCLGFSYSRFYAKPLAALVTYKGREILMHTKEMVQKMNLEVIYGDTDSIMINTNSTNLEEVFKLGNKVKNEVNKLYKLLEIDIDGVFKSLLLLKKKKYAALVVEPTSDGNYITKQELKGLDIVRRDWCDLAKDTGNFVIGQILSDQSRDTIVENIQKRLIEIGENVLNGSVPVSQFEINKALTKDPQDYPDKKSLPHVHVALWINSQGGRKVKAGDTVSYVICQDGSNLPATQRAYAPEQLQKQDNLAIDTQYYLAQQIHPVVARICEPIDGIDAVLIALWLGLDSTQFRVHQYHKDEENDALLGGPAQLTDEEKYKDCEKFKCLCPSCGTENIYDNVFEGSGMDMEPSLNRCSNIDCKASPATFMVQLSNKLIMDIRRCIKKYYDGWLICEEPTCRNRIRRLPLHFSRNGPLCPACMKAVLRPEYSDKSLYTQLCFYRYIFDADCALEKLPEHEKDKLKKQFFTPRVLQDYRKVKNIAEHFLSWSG

[2] = target: T3, DNA polymérase I de Escherichia coli (Escherichia coli, UniProt P00582); assay: Effect on E. coli DNA polymerase I; assay type: biochemical
T3 construct: purchased BRL

[3] = target: T4, DNA polymérase alpha de placenta humain (Homo sapiens, UniProt P09884); assay: Effect on human DNA polymerase alpha; assay type: biochemical
T4 construct: la DNA polymérase alpha de placenta humain; tissue Dr Olga Lavrik, Novosibirsk (gift); host or cells: human placenta

[4] = target: association enzyme-matrice (HIV1-RT / hybride primer-matrice) (Human immunodeficiency virus type 1 group M subtype B, UniProt P03366); settings: enzyme 0,15 nM à 1nM; aurothioglucose 0,1 »M à 100 »M
Text: On aussi effectué la filtration de l'enzyme et de l'hybride primeur-matrice en présence de concentration croissante de l'aurothioglucose. Les conditions expérimentales sont celles décrites précédemment.

cellules ALEX et MT-4 = assay: Cytotoxicity (cell doubling time, trypan blue exclusion); assay type: cell-based
Text: (§3) Il a également été montré que les composés de l'invention sont moins toxiques que leurs analogues de base, en mesurant, à l'aide du microscope photonique, le temps de duplication cellulaire et l'exclusion du bleu trypan.

[5] = as above; assay type: cell-based; settings: human, alex and mt-4 cells; cytotoxic at concentrations exceeding the value; read-out: concentrations cytotoxiques
Text: as §3

[6] = system: glycosylation de gp120 ou gp41; assay: Effect on viral glycoprotein synthesis (glycosylation) in infected cells; assay type: cell-based, HIV-1; settings: for minimal effective concentration: Human immunodeficiency virus 1, read-out: concentration efficace sur la glycosylation
Text: Effets de médicaments sur la synthèse de glycoprotéines: des cellules CEM ou MT-4 ont été infectées par HIV-1; 4 heures après l'infection, une moitié des cellules a été marquées avec [2³H]Man ou [6³H]GlcNAc à 2,5-5,9 »Ci. Les milieux ont été changés et de l'inhibiteur frais (potentiel) et 2,5 »Ci (ou 5 »Ci) de l'isotope approprié ont été ajoutés. Les cellules ont été lysées à trois et sept jours après l'infection et les lysats cellulaires ont été clarifiées par centrifugation à 12 000 g; qp120 et gp41 ont été l'une et l'autre isolées par immunoprécipitation sur colonnes et les produits, analysés sur gels de polyacrylamide à 12% et fluorographie [Kumarasamy R & Blough H.A., Biochem. Biophys. Res. Commun. 109, 1108-1115 (1982)]. Les virus ont été récoltés et purifiés par centrifugation à vitesse contrôlée sur gradients préformés de citrate de sodium ou métrazamide à 5-40%, et analysés de façon similaire.

T3 sequence (P00582 whole entry): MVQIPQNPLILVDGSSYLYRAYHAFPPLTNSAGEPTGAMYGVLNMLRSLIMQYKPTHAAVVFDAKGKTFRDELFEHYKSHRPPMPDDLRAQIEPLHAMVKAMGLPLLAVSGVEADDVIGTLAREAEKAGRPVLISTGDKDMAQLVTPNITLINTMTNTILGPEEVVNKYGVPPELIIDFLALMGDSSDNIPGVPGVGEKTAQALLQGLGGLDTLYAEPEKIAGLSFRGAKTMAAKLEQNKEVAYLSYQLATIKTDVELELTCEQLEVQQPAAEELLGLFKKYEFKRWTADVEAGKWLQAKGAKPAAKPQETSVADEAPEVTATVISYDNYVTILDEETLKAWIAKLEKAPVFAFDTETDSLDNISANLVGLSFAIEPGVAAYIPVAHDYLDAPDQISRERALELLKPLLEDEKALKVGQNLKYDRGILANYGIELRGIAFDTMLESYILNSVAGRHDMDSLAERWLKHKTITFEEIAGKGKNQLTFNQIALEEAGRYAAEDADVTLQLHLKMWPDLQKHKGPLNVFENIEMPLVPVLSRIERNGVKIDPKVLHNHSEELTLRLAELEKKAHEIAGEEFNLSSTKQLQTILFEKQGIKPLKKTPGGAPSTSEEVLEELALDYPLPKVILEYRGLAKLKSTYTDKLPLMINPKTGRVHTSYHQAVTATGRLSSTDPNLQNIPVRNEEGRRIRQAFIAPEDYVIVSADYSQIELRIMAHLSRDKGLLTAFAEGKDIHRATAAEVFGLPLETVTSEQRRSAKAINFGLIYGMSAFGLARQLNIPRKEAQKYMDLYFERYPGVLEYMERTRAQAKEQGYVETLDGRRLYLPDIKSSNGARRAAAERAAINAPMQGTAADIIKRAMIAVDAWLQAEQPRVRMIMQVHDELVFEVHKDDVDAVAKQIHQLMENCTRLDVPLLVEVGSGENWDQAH
T4 sequence (P09884 whole entry): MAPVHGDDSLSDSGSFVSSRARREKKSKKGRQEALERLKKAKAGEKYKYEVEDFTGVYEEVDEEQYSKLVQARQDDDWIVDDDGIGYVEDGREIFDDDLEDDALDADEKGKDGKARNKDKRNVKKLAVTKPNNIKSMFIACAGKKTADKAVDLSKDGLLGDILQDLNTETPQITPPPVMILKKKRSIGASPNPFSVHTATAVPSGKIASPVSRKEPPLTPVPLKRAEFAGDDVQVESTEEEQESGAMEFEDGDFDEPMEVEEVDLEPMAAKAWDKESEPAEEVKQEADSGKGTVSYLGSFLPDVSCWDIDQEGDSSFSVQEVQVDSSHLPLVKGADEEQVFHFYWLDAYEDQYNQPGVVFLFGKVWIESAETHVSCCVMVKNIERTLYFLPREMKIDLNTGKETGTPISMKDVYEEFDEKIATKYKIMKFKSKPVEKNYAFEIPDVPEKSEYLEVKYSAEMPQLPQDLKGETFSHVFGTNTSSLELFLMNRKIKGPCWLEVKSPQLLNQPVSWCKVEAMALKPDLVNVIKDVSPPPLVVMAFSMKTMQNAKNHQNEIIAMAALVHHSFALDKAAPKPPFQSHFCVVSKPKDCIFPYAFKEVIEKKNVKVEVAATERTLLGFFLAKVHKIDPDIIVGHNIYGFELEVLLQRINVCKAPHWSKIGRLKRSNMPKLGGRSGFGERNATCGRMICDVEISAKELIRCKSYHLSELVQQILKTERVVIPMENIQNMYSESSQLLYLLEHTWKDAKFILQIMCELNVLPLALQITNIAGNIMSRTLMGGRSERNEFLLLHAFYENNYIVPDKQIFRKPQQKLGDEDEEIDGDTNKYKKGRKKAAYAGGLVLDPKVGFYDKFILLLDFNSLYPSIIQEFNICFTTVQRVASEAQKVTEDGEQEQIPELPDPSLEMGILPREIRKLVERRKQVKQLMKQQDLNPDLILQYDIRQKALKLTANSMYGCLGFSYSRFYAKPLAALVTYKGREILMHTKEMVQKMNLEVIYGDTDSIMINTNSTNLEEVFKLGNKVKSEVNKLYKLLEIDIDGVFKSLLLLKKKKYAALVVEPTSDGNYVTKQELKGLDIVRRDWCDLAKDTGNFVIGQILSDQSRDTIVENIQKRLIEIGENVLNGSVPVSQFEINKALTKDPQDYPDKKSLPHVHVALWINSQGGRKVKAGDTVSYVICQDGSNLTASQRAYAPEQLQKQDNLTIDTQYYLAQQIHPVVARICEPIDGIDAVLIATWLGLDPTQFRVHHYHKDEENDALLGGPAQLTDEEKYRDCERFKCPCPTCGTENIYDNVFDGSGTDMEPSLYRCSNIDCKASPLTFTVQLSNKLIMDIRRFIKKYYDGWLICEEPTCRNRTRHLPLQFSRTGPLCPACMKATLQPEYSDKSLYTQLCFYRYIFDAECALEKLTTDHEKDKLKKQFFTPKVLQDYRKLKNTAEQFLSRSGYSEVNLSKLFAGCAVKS
T4 sequence (Q14181 whole entry partner): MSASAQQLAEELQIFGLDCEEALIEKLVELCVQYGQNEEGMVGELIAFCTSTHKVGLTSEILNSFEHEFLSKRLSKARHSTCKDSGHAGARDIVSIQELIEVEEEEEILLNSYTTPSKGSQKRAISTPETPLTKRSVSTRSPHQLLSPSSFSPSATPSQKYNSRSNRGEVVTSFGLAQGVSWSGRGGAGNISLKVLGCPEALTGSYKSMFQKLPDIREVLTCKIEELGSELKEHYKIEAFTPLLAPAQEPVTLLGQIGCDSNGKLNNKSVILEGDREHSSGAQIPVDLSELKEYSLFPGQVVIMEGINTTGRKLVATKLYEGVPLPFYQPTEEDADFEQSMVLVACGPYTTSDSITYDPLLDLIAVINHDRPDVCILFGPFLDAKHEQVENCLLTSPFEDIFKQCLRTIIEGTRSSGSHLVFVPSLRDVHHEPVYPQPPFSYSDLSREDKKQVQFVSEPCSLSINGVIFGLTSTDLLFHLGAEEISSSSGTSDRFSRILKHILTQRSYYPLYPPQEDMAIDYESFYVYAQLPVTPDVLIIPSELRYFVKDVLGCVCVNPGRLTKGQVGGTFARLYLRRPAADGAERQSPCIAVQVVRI
T4 sequence (P49642 whole entry partner): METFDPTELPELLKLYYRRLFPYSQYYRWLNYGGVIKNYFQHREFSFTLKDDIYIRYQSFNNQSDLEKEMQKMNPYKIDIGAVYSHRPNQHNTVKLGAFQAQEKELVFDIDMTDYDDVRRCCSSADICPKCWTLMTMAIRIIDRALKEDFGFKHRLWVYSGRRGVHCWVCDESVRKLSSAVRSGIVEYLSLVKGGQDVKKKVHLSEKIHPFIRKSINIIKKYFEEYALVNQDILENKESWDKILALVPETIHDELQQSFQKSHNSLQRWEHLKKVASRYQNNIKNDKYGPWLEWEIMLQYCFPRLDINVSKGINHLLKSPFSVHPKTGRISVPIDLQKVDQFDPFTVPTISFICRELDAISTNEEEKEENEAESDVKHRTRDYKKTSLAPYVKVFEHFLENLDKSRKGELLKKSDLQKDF
T4 sequence (P49643 whole entry partner): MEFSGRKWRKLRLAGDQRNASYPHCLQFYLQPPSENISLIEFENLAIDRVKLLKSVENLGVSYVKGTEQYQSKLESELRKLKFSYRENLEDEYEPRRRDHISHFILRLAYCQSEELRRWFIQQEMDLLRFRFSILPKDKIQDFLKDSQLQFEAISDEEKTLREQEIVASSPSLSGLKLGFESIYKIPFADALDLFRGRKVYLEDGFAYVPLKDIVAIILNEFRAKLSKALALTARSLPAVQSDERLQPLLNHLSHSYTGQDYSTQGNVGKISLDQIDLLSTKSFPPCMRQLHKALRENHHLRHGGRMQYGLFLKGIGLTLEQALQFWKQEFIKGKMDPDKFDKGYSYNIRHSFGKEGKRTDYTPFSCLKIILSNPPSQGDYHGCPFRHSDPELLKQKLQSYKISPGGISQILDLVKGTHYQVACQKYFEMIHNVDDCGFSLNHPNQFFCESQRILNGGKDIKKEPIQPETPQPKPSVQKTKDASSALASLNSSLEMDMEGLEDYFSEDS

Compound: OC[C@H]1O[C@@H]([S][Au])[C@H](O)[C@@H](O)[C@@H]1O [1-aurothioglucose, 1-bêta-D-aurothioglucose]
effet sur l'élongation des chaînes d'ADN par l'AMV-RT (AMV-RT; Figure 5, lane 2, added after polymerisation of six nucleotides): inhibition de l'élongation de la chaîne
concentrations nécessaires pour bloquer AMV-RT (AMV-RT; compared with HIV-RT, Figure 2): concentrations supérieures
inhibition en utilisant des matrices d'ARN (HIV-RT; RNA templates compared with DNA templates, Figure 3): résultats comparables
sensibilité de l'enzyme complexée à la matrice (b) et en phase d'élongation (c) (HIV-RT; cases (b) and (c) compared): la même sensibilité
effets combinés de la zidovudine (AZT) et de l'aurothioglucose (HIV-RT; combined with zidovudine (AZT)): additifs et qu'il existe une action synergique
quantité efficace pour bloquer le complexe HIV-R.T.-Substrat (HIV-RT; complexe HIV-R.T.-Substrat à 40 nm, Figure 1): 3 »m
diminution de la constante d'inhibition (Ki) (HIV-RT; free enzyme, case (a), compared with cases (b) and (c)): 33%
activité par rapport à l'AZT triphosphate (HIV-RT; qualitative comparison): considérablement plus actif
concentration en aurothioglucose à laquelle la polymérase est sensible [1]: > 100 µM
inhibition de la DNA-polymérase-1 d'Escherichia Coli ([2]; Figure 6, autoradiogram): inhibition
concentration en aurothioglucose à laquelle la polymérase est sensible ([2]; sensitive above the value): > 50 µM
activité inhibitrice sur les DNA polymèrases humaines ([3]; in vitro): activité inhibitrice faible
concentration en drogue à laquelle la polymérase est sensible ([3]; insensitive at concentrations lower than or equal to the value): > 1 mM
association enzyme-matrice [4]: affaiblie

Compound: OC[C@H]1O[C@@H](S)[C@H](O)[C@@H](O)[C@@H]1O [1-thioglucose, 1-bêta-D-thioglucose]
effet sur la R.T. (AMV) (AMV-RT): n'ont pas présenté d'effet
effet inhibiteur sur la HIV1-RT (HIV-RT): n'ont pas présenté d'effet
effet inhibiteur sur la HIV1-RT (HIV-RT; listed as 1-bêta-D-thioglucose): aucun effet
toxicité vis-à-vis des cellules (cellules ALEX et MT-4): trop toxiques
MCC [5]: > 2 mM
activité à l'encontre de la glycosylation de gp120 ou gp41 [6]: actifs
minimal effective concentration [6]: ~0.0035 µM

Compound: OC[C@H]1S[C@@H](O)[C@H](O)[C@@H](O)[C@@H]1O [5-thioglucose, 5-bêta-D-thioglucose]
effet sur la R.T. (AMV) (AMV-RT): n'ont pas présenté d'effet
effet inhibiteur sur la HIV1-RT (HIV-RT): n'ont pas présenté d'effet
effet inhibiteur sur la HIV1-RT (HIV-RT; listed as 5-bêta-D-thioglucose): aucun effet
toxicité vis-à-vis des cellules (cellules ALEX et MT-4): trop toxiques
MCC [5]: > 2 mM
activité à l'encontre de la glycosylation de gp120 ou gp41 [6]: actifs
minimal effective concentration [6]: ~0.0035 µM

effet inhibiteur sur la HIV1-RT (HIV-RT): inhibition
Compound: Cc1cn([C@H]2C[C@H](N=[N+]=[N-])[C@@H](COP(=O)(O)OP(=O)(O)OP(=O)(O)O)O2)c(=O)[nH]c1=O [AZT phosphorylé, 3'-Azido-DTTP, reference compound]

Compound: aurothiopropanol
effet inhibiteur sur la HIV1-RT (HIV-RT): inhibition; also recorded: effet inhibiteur
